# Measurements published in US20060063785A1, “Substituted pyrazolo[1,5-a] pyrimidines and process for making same” (priority 2004, published 2006).
# Read-outs that look alike come from different tables or passages of the source.
# Experiments:
# [1] = system: 80S14 (p21-deficient) cells; test: Determination of selectivity of compounds for p21-/- cells: IC50 in 80S14 cells (SRB); format: cell-based, human
# Description: • 1. 80S14 (p21-deficient) cells were cultured in RPMI 1640 medium (Gibco/Invitrogen Life technologies) supplemented with 10% fetal bovine serum (FBS, Gibco) and 10 μg/ml gentamycin (Gibco). Cells were maintained at 37° C. under 7% CO2. • 2. Cells were plated at 6×10^4/ml (0.2 ml/well; 12,000 cells/well) in 96-well microtiter plates (Falcon or Corning/Costar) and incubated at 37° C. overnight (18-24 hours). • 3. 2-5 μl of the test agent-[200 μg/ml stock in 20% DMSO/20 mM HEPES, pH 7.5 (Gibco)] was added to each well to achieve a final concentration of 2-5 μg/ml. Cells were incubated with the test compounds for 5 days at 37° C. • 4. Surviving cells were fixed with 50 μl 50% trichloroacetic acid (Sigma; 10% final concentration) for 1 hour at 4° C. • 5. Plates were rinsed twice with water (0.3 ml per wash using MRD8 robot), and allowed to dry. • 6. Sulforhodamine B (SRB) (Sigma; 0.4% in 1% acetic acid, 50 μl per well; MRD8 robot) was added and plates kept at room temperature for 10 minutes. • 7. Excess dye was removed by washing with 1% acetic acid (3 times, 0.3 ml per wash; MRD8 robot) and allowed to dry. • 8. The dye was solubilized in Tris base (Sigma; 10 mM, 150 μl per well). Plates were kept at room temperature for 30 minutes to allow the dye to diffuse. • 9. Absorbance was measured at 540 nm. • 10. The percentage of cells surviving drug treatment relative to control wells (no drug) was determined. • 11. The difference in % cell survival between the two cell lines was calculated. • 12. Compounds producing a difference score of >50 were considered to be selective for the p21-deficient cells and were evaluated further. Determination of Selectivity of Compounds for p21−/− Cells: • 1. 80S14 cells were cultured as described above. • 2. Cells were seeded in 96-well microtiter plates at 12,000 cells/well (either 0.15 ml/well of 8×10^4 cells/ml suspension, or 0.2 ml/well of 6×10^4 cells/ml suspension). Plates were incubated at 37° C. overnight (18-24 hours). • 3. Serial dilutions of the test agent were added to each well. Dilutions were prepared either in 40% DMSO/20% methanol/20 mM HEPES, pH 7.5 (Gibco) or directly in growth medium. One of two dose ranges were used: 5 pM to 50 μM or 170 pg/ml to 10 μg/ml. Cells were incubated with the test compounds for 5 days at 37° C. • 4. Surviving cells were fixed with 50 μl 50% trichloroacetic acid (Sigma; 10% final concentration) for 1 hour at 4° C. • 5. Plates were rinsed extensively in water, and allowed to dry. • 6. Sulforhodamine B (Sigma; 0.4% in 1% acetic acid, 70 μl per well) was added and plates kept at room temperature for 10 minutes. • 7. Excess dye was removed by washing 5 times with 1% acetic acid and plates were allowed to dry. • 8. The dye was solubilized in Tris base (Sigma; 10 mM, 150 μl per well). Plates were placed on a titer plate shaker (Lab Line Instruments) for 5 minutes to allow the dye to diffuse. • 9. Absorbance was measured at 560 nm.
# 10. The drug concentration which inhibits cell proliferation by 50% relative to untreated controls (IC50) was determined from cytotoxicity curves.
# [2] = system: LoVo Colon cell line; test: Cytotoxicity assay using LoVo colon cell line (SRB, IC50); format: cell-based; conditions: read-out: Inhibition of LoVo
# Description: Cytotoxicity Assay Using LoVo Colon Cell Line: • 1. LoVo Colon cell lines was cultured in RPMI 1640 medium (Gibco/Invitrogen Life Sciences) supplemented with 10% fetal bovine serum (FBS, Gibco) and 50 μg/ml gentamicin (Gibco). Cells were maintained at 37° C. under 7% CO2. • 2. Cells were seeded in 96-well microtiter plates (Corning/Costar) in a volume of 0.15 ml of growth medium (4000 cells/well). Plates were incubated at 37° C. overnight (18-24 hours). • 3. Serial dilutions of the test agent were added to each well. Dilutions were prepared in growth medium. One of two dose ranges was used: 5 pM to 20 μM or […] to 10 μg/ml. Cells were incubated with the test compounds for 4 days at 37° C. • 4. Surviving cells were processed using the SRB asay, as described above.
# 5. The drug concentration that inhibits cell proliferation by 50% relative to untreated controls (IC50) was determined from cytotoxicity curves using the LSW Toolbox graphing application.
# [3] = Cellular activity in 80S14 (p21-deficient) cells, SRB, class symbols, read-out: IC50 for 80S14
# [4] = Cellular activity in LoVo cell, 4 days incubation, SRB assay
# [5] = Homo sapiens, 80S14, 120 h, read-out: IC50 for 80S14 (μM)
# [6] = 80S14 (p21-deficient) cells, 5 days at 37° C., SRB, read-out: IC50 for 80S14
# [7] = LoVo colon cells, 4 days at 37° C., SRB
# [8] = Homo sapiens, 120 h, 80S14 (p21-deficient) cells, 5 days at 37° C., SRB, read-out: IC50 for 80S14
# [9] = Homo sapiens, 96 h, LoVo colon cells, 4 days at 37° C., SRB
# [10] = Homo sapiens, Cellular activity in 80S14 (p21-deficient) cells, SRB, class symbols, read-out: IC50 for 80S14
compound,measurement,setting,value
"3-(3,5-Dimethylphenyl)-7-[3-(2-ethyl-2H-tetrazol-5-yl)phenyllpyrazolo[1,5-a]pyrimidine [Example 384]",IC50,[1]; [3],1 to 10 µM
same,IC50,[2]; [4],100 to 1000 nM
"3-Methyl-N-{^5-[3-(thien-2-ylcarbonyl)pyrazolo[1,5-a]pyrimidin-7-yl]thien-2-yl}butanamide [Example 240]",IC50,[1]; [3],1 to 10 µM
same,IC50,[2]; [4],1000 to 20000 nM
"7-{3-[2-(Cyclobutylmethyl)-2H-tetraazol-5-yl]phenyl}-3-(3,5-dimethylphenyl)pyrazolo[1,5-a]pyrimidine [Example 381]",IC50,[1]; [3],1 to 10 µM
same,IC50,[2]; [4],100 to 1000 nM
"C#CCOC(=O)Nc1cccc(-c2ccnc3c(C(=O)c4cccs4)cnn23)c1 [Example 13, prop-2-ynyl 3-[3-(thien-2-ylcarbonyl)pyrazolo[1,5-a]pyrimidin-7-yl]phenylcarbamate]",IC50,[1]; [5],< 1 µM
same,IC50,"[2]; Homo sapiens, LoVo, 96 h",100 to 1000 nM
"O=C(Nc1cccc(-c2ccnc3c(C(=O)c4cccs4)cnn23)c1)OCCCl [Example 16, 2-chloroethyl 3-[3-(thien-2-ylcarbonyl)pyrazolo[1,5-a]pyrimidin-7-yl]phenylcarbamate]",IC50,[1]; [5],< 1 µM
same,IC50,"[2]; Homo sapiens, LoVo, 96 h",< 100 nM
"C=C(C)C(=O)Nc1cccc(-c2ccnc3c(C(=O)c4cccs4)cnn23)c1 [Example 36, 2-methyl-N-{3-[3-(thien-2-ylcarbonyl)pyrazolo[1,5-a]pyrimidin-7-yl]phenyl} acrylamide]",IC50,[1]; [6],< 1 µM
same,IC50,[2]; [7],< 100 nM
"CCCC(Cl)CC(=O)Nc1cccc(-c2ccnc3c(C(=O)c4cccs4)cnn23)c1 (centres unmarked) [Example 121, 3-chloro-N-{3-[3-(thien-2-ylcarbonyl)pyrazolo[1,5-a]pyrimidin-7-yl]phenyl}hexanamide]",IC50,[1]; [8],< 1 µM
"CCCCCCCCCCC(=O)Nc1cccc(-c2ccnc3c(C(=O)c4cccs4)cnn23)c1 [Example 124, N-{3-[3-(thien-2-ylcarbonyl.)pyrazolo[1,5-a]pyrimidin-7-yl]phenyl}undecanamide]",IC50,[1]; [6],10 to 50 µM
"C/C=C/C(=O)Nc1cccc(-c2ccnc3c(C(=O)c4cccs4)cnn23)c1 [Example 129, (2E)-N-{3-[3-(thien-2-ylcarbonyl)pyrazolo[1,5-a]pyrimidin-7-yl]phenyl}but-2-enamide]",IC50,[1]; [8],1 to 10 µM
"O=C(c1cccs1)c1cnn2c(-c3cccc(NC(=O)N4CCOCC4)c3)ccnc12 [Example 131, N-{3-[3-(thien-2-ylcarbonyl)pyrazolo[1,5-a]pyrimidin-7-yl]phenyl}morpholine-4-carboxamide]",IC50,[1]; [8],1 to 10 µM
same,IC50,[2]; [9],100 to 1000 nM
"CN(C)CCNC(=O)Nc1cccc(-c2ccnc3c(C(=O)c4cccs4)cnn23)c1 [Example 134, N-[2-(dimethylamino)ethyl]-N′-{3-[3-(thien-2-ylcarbonyl)pyrazolo[1,5-a]pyrimidin-7-yl]phenyl}urea]",IC50,[1]; [8],10 to 50 µM
"CCCCCNC(=O)Nc1cccc(-c2ccnc3c(C(=O)c4cccs4)cnn23)c1 [Example 138, N-pentyl-N′-{3-[3-(thien-2-ylcarbonyl)pyrazolo[1,5-a]pyrimidin-7-yl]phenyl}urea]",IC50,[2]; [9],< 100 nM
"COCCN(CCOC)C(=O)Nc1cccc(-c2ccnc3c(C(=O)c4cccs4)cnn23)c1 [Example 141, N,N-bis(2-methoxyethyl)-N′-{3-[3-(thien-2-ylcarbonyl)pyrazolo[1,5-a]pyrimidin-7-yl]phenyl}urea]",IC50,[2]; [9],1000 to 20000 nM
"O=C(Nc1cccc(-c2ccnc3c(C(=O)c4cccs4)cnn23)c1)OCC1CCCCC1 [Example 148, Cyclohexylmethyl 3-[3-(thien-2-ylcarbonyl)pyrazolo[1,5-a]pyrimidin-7-yl]phenylcarbarmate]",IC50,[1]; [6],< 1 µM
same,IC50,[2]; [7],< 100 nM
"Cc1cc(-c2cccc(NC(=O)C3CO3)c2)n2ncc(C(=O)c3cccs3)c2n1 (centres unmarked) [Example 191, {3-[5-Methyl-3-(2-thienylcarbonyl)pyrazolo[1,5-a]pyrimidin-7-yl]phenyl}-2-oxiranecarboxamide]",IC50,[1]; [3],< 1 µM
"CC(C)COC(=O)Nc1cccc(-c2ccnc3c(Br)cnn23)c1 [Example 225, Isobutyl 3-(3-bromopyrazolo[1,5-a]pyrimidin-7-vl)phenvlcarbamate]",IC50,[1]; [3],10 to 50 µM
"CC(C)NC(=S)Nc1ccc(Cl)c(-c2ccnc3c(C(=O)c4cccs4)cnn23)c1 [Example 237, N-{4-Chloro-3-[3-(thien-2-ylcarbonyl)pyrazolo[1,5-a]pyrimidin-7-yl]phenyl}-N′-isopropylthiourea]",IC50,[1]; [10],1 to 10 µM
same,IC50,"[2]; Homo sapiens, 96 h, Cellular activity in LoVo cell, 4 days incubation, SRB assay",100 to 1000 nM
"O=C(Nc1cccc(-c2ccnc3c(C(=O)c4cccs4)cnn23)c1)NC1CCCCC1 [Example 249, N-Cyclohexyl-N′-{3-[3-(thien-2-ylcarbonyl)pyrazolo[1,5-a]pyrimidin-7-yl]phenyl}urea]",IC50,[1]; [10],< 1 µM
"CN1CCC(C(=O)Nc2cccc(-c3ccnc4c(C(=O)c5cccs5)cnn34)c2)CC1 [Example 307, 1-Methyl-N-{3-[3-(thien-2-ylcarbonyl)pyrazolo[1,5-a]pyrimidin-7-yl]phenyl}piperidine-4-carboxamide]",IC50,[1]; [10],10 to 50 µM
"CC(CCNc1cccc(-c2ccnc3c(C(=O)c4cccs4)cnn23)c1)CC(C)(C)C (centres unmarked) [Example 321, Thien-2-yl(7-{3-[(3,5,5-trimethylhexyl]amino]phenyl}pyrazolo[1,5-a]pyrimidin-3-yl](thien-2-yl)methanone]",IC50,[1]; [3],1 to 10 µM
same,IC50,[2]; [4],100 to 1000 nM
"O=C(c1cccs1)c1cnn2c(-c3cccc(NCC4CC=CCC4)c3)ccnc12 (centres unmarked) [Example 324, (7-{3-[(cyclohex-3-en-1-ylmethyl)emnino]phenyl}pyrazolo[1,5-a]pyrimidin-3-yl)-(thien-2-yl)-methanone]",IC50,[1]; [3],< 1 µM
same,IC50,[2]; [4],< 100 nM
"O=C(CCc1cccnc1)Nc1cccc(-c2ccnc3c(C(=O)c4cccs4)cnn23)c1 [Example 336, 3-Pyridin-3-yl-N-{3-[3-(thien-2-ylcarbonyl)pyrazolo [1,5-a]pyrimidin-7-yl]phenyl}propanamide]",IC50,[1]; [10],1 to 10 µM
"(7-{3-[1-(Cyclobutylmethyl)-1H-pyrazol-3-yl]phenyl}pyrazolo[1,5-a]pyrimidin-3-yl)(thien-2-yl)methanone [Example 404]",IC50,[1]; [3],< 1 µM
same,IC50,[2]; [4],< 100 nM
"N,N′-Diethyl-3-[3-(2-thienylcarbonyl)-pyrazolo[1,5-a]pyrimidin-7-yl]-benzamide [Example 181]",IC50,[1]; [3],10 to 50 µM
"N-{3-[3-(2-Thienylcarbonyl)pyrazolo[1,5-a]pyrimidin-7-yl]phenyl}-3-trifluoromethyl)benzamide [Example 193]",IC50,[1]; [3],< 1 µM
"tert-Butyl 4-[({3-[3-[3-(thien-2-ylcarbonyl)pyrazolo[1,5-a]pyrimidin-7-yl]phenyl}amino)carbonyl]piperidine-1-carboxylate [Example 295]",IC50,[1]; [3],1 to 10 µM
